{
  "source": "patent US10005720B2",
  "about": "“Compounds useful for the treatment of metabolic disorders and synthesis of the same” (NORTH CAROLINA CENTRAL UNIVERSITY, priority 2013, dated 2018)",
  "key": {"CAR3": {"test_system": "CAR3", "assay": "CAR3 level in liver of treated mice (Western blot, 2D-DiGE)", "type": "in vivo, mouse", "excerpt": "(§1) The expression and proteomic studies were implemented with particular interest in lipid/energy metabolism pathways."}, "[1]": {"test_system": "C57-diet induced obesity (DIO) mouse model", "assay": "Histological scoring of hepatic steatosis in the C57-DIO mouse model", "type": "in vivo", "conditions": "C57-DIO mice; for fatty liver phenotype / hepatic steatosis by liver histology (H&E): once-daily IP injection for 12 days, 10 mg/kg body weight", "excerpt": "The C57-diet induced obesity (DIO) mouse model was used in this study as a disease model for fatty liver disease and hepatic insulin resistance (FIG. 4). It was observed that eighty percent of the C57-DIO animals develop the fatty liver phenotype at 20-weeks, which highly correlates with insulin resistance penetrance and poor glycemic control. […] In humans, progressive accumulation of hepatic triglycerides is associated with metabolic syndrome/T2D and leads to impairment of insulin action in the liver. The two guiding phenotypic indicators of test compound efficacy in earlier studies were: histological scoring of hepatic steatosis, and intraperitoneal (IP) glucose tolerance.\nSingly housed mice raised on a 60%-fat diet (20-week old males purchased from Sax labs) with extensive fatty liver were treated with the test compound for 12 days via daily intraperitoneal injection (IP). […] In addition, coats of treated animals were drier (FIG. 4B vs. C), consistent with reduction in triglycerides (also observed in the DGAT1 mouse knockout with dry coat).\nDuring initial animal screening, we developed a quantitative histomorphometry platform software using components of the open-source CellProfiler software for automatically quantifying/scoring liver lipid content through lipid droplet detection in entire liver sections. In brief, entire H&E liver slides are scanned at 400× total magnification using an Aperio ScanScope slide scanner. For automated lipid phenotyping, we 1) detect entire pieces of tissue, 2) identify individual lipid droplets based on size and shape and, 3) measure mean droplet size and droplet density per […]. This automated quantitation of liver lipid phenotype, supervised and verified by a trained veterinary pathologist (PI Yi), offers an unbiased and simple method for comparing compound effects. Results from manual scoring of average degree of steatosis in cohorts are; Sham-90%, B127443-27% and are in good agreement with machine-aided scoring results as shown in FIG. 6."}, "[2]": {"test_system": "genes involved in lipid/energy metabolism", "assay": "Gene chip microarray analysis of sham and drug treated liver", "type": "in vivo, mouse", "conditions": "treated vs sham liver", "excerpt": "The expression and proteomic studies were implemented with particular interest in lipid/energy metabolism pathways. […] We are also particularly interested in Car3, since this gene represents ˜30% of soluble protein in adipose tissue, goes up in adipocytes (˜2-fold) in response to high fat diet, but goes down in the liver dramatically in response to energetic starvation. Finally, Car3 is negatively regulated by insulin signaling and thus might reflect insulin sensitivity. FGF21 and Car3 are good biomarkers for liver function in response to metabolic changes."}, "FGF21": {"test_system": "FGF21", "assay": "FGF21 expression in liver of treated C57-DIO mice (Western blot, qPCR, microarray)", "type": "in vivo, mouse", "excerpt": "as §1"}, "[3]": {"test_system": "C57-diet induced obesity mouse model", "assay": "Intraperitoneal glucose tolerance testing (IP-GTT) in C57-DIO mice", "type": "in vivo", "description": "Glucose tolerance testing (IP-GTT) was performed via an IP injection of a 10% glucose solution at […] body weight within a 10 mL/kg body weight volume. Blood glucose was monitored pre and post injection at 15-minute intervals for 60 minutes using a standard glucometer. IP-GTT was chosen over oral GTT to bypass gut hormone signaling (GLP-1) for a more direct assessment of hepatic insulin resistance. IPGTT was performed on animals both prior to and after the 12-day test compound administration period to glean both individual animal responses and cohort averaged responses."}, "[4]": {"conditions": "drug treated at 10 mg/kg vs. vehicle"}, "[5]": {"conditions": "trials on large numbers of mice"}},
  "note": "“Also recorded” adds a separate entry of the source.",
  "data": [
    {"compound": "O=C(Nc1ccc([N+](=O)[O-])cc1Cl)c1cc(Cl)ccc1O", "note": "[Example B-127443, Niclosamide]", "values": [
      {"measurement": "CAR3 in liver, Western blot", "setting": "CAR3; [4]", "value": "significant reduction"},
      {"measurement": "CAR3 protein level in liver, comparative proteomics (2D-DiGE)", "setting": "CAR3; livers of treated mice", "value": "significantly lower levels of CAR3 protein"},
      {"measurement": "Car3 expression", "setting": "CAR3; [5]", "value": "decreasing"},
      {"measurement": "fatty liver phenotype / hepatic steatosis by liver histology (H&E)", "setting": "[1]; 10 mg/kg", "value": "dramatic therapeutic effects; also recorded: reversal of fatty phenotype"},
      {"measurement": "fatty liver phenotype / hepatic steatosis by liver histology (H&E)", "setting": "[1]; listed as B127443, 10 mg/kg", "value": "efficacious; also recorded: robust responses"},
      {"measurement": "average degree of steatosis in cohorts, manual scoring", "setting": "[1]; Sham 90%", "value": 27, "unit": "%"},
      {"measurement": "expression of genes involved in lipid/energy metabolism (FGF21, Fitm1, Fitm2, CideC, Cyp7A1, chn)", "setting": "[2]", "value": "significantly changed the expression of many genes involved in lipid/energy metabolism"},
      {"measurement": "FGF21 expression in liver, Western blot", "setting": "FGF21; [4]", "value": "stimulation"},
      {"measurement": "FGF21 expression", "setting": "FGF21; [5]", "value": "increases"},
      {"measurement": "glucose tolerance (IP-GTT), individual animals before and after treatment", "setting": "[3]; 12-day treatment with 5 mg/kg, Animals 1,3", "value": "improved glucose tolerance"},
      {"measurement": "glucose tolerance (IP-GTT)", "setting": "[3]; 12-day treatment, 10 mg/kg, cohort average (n=6) vs sham, 10 mg/kg", "value": "markedly improved; also recorded: marked improvement in glucose tolerance"}
    ]}
  ]
}
